The values that follow come from patent US11142533B2, “Macrocycles for use in treating disease” (TURNING POINT THERAPEUTICS, INC., priority 2019, dated 2021).

Each structure is given as a SMILES string.

For orientation: IC50 means the concentration that gives 50% inhibition.

The target in data set [1] is T1, Ba/F3 cell-derived tumors with the EML4-ALK L1198F/G1202R fusion (Homo sapiens, UniProt Q9UM73, G1202R/L1198F).
T1 sequence (Q9UM73 with tags, fused parts or gaps L1198F/G1202R): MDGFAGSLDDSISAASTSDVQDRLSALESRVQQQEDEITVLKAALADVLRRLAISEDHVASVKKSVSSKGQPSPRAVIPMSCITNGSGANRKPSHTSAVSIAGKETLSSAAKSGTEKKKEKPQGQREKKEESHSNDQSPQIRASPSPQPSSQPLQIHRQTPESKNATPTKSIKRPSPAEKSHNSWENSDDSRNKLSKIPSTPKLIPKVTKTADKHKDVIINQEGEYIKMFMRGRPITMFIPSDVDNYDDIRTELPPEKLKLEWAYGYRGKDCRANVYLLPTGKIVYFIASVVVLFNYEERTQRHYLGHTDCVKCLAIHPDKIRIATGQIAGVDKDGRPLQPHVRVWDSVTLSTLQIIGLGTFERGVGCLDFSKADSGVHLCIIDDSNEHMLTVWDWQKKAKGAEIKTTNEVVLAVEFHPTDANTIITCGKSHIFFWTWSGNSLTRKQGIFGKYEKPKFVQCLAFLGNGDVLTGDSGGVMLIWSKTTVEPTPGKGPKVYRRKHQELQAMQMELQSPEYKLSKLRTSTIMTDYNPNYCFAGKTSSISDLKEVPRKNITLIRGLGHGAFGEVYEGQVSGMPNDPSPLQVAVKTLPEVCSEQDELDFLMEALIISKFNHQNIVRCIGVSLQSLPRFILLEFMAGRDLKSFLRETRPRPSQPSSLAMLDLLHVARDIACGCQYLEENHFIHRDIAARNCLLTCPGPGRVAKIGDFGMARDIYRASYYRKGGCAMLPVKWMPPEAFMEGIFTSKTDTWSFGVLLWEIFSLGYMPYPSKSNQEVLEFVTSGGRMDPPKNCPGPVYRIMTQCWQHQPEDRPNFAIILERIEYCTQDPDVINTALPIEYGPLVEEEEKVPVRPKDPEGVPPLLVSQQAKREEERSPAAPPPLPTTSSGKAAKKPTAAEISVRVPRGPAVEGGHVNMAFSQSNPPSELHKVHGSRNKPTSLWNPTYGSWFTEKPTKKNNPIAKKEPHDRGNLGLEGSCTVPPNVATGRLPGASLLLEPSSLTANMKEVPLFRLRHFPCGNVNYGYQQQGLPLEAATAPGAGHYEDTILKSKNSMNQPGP

For another data set, the target named is T2, ALK (G1269A) (Homo sapiens, UniProt Q9UM73, G1269A).
T2 construct: purchased Reaction Biology Corporation (contract assay)
T2 sequence (Q9UM73 19-1620 G1269A): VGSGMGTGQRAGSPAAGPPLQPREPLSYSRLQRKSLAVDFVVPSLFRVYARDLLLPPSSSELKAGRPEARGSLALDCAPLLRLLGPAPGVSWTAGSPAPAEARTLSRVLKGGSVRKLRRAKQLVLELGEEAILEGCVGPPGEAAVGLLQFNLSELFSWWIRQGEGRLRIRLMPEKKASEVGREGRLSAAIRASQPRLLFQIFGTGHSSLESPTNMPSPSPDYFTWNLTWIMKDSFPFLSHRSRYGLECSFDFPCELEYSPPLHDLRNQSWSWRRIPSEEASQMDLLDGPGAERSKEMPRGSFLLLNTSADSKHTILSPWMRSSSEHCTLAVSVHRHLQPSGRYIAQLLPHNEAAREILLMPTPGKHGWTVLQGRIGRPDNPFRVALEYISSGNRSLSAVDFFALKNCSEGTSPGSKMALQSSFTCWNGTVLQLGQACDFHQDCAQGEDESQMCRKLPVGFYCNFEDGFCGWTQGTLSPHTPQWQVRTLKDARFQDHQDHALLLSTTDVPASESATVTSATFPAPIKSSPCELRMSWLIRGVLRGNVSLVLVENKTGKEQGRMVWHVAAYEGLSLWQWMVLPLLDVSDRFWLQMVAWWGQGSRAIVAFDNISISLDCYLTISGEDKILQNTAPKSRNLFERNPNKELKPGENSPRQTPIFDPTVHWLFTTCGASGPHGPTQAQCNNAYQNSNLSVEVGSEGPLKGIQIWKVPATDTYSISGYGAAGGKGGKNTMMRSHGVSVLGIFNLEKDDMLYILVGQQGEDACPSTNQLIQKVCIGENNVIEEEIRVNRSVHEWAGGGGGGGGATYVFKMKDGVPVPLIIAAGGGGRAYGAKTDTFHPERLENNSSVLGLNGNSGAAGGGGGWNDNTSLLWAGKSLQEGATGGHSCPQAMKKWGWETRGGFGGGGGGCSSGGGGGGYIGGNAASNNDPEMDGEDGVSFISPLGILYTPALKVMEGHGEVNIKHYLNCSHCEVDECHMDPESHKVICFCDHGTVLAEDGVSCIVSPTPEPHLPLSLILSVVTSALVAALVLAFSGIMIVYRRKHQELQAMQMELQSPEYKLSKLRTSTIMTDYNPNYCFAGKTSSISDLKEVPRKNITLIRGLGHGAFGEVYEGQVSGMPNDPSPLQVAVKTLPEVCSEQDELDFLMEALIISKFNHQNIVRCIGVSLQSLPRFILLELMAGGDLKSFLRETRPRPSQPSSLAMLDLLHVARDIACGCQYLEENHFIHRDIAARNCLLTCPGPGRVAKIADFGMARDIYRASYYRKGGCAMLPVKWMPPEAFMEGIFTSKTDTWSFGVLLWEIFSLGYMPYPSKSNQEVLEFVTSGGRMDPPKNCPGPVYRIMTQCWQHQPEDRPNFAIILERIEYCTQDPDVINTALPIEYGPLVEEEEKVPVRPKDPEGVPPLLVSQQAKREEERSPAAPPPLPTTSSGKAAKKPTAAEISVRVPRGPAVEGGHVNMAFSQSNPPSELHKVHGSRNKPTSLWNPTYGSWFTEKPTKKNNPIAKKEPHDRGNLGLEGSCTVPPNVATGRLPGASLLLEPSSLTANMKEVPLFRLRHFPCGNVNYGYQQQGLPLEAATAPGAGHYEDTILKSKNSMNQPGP
Briefly: Biochemical kinase assay (Reaction Biology). The following applies: 10 μM ATP.

In a further data set the target is T3, ALK (L1198F/C1156Y) (Homo sapiens, UniProt Q9UM73, C1156Y/L1198F).
T3 construct: purchased Reaction Biology Corporation (contract assay)
T3 sequence (Q9UM73 19-1620 C1156Y/L1198F): as the sequence (Q9UM73 19-1620 G1269A) above, with C1138Y, L1180F, A1251G counted along it
Briefly: Biochemical kinase assay (Reaction Biology). The following applies: 10 μM ATP.

In the case of `CC1(C)COc2ccc(F)cc2CN2c3nc4c(cnn4cc3OC[C@H]2C(F)F)C(=O)N1` [Compound 1, (4S)-4-(Difluoromethyl)-8-fluoro-13,13-dimethyl-3,4,13,14-tetrahydro-6H-18,1-(metheno)[1,4]oxazino[3,4-i]pyrazolo[4,3-f][1,4,8,10]benzoxatriazacyclotridecin-15(12H)-one], the body weight result in data set [1] (2, 5, 10 mg/kg BID, after 7 days of treatment) was “no body weight loss”. Further, in data set [1] (all three dose levels of 2, 5, and 10 mg/kg BID, after 7 days of treatment), the “Tumor growth inhibition (TGI)” value amounted to 200%. Besides, the “tumor response at the end of study” value in data set [1] (all three groups (2, 5, 10 mg/kg BID), day 14 post inoculation) was “complete regression”.
Consider `O=C1NCC2(CC2)COc2ccc(F)cc2CN2c3nc4c1cnn4cc3OC[C@H]2C(F)F` [Compound 2, (16′S)-16′-(Difluoromethyl)-12′-fluoro-4′H,5′H,6′H,8′H,14′H,16′H,17′H-spiro[cyclopropane-1,7′-[1,19](metheno)[1,4]oxazino[3,4-j]pyrazolo[4,3-g][1,5,9,11]benzoxatriazacyclotetradecin]-4′-one], for which the IC50 amounted to 1.28 nM against ALK (G1269A) and 0.15 nM against ALK (L1198F/C1156Y).
